Source: the supplement of paper PMC10307832

Key:
Assay in all cases: relative viability (nuclei count vs DMSO), 5 days (fraction); higher = more cells survive
Gemcitabine + Bortezomib = compound: Nc1ccn([C@@H]2O[C@H](CO)[C@@H](O)C2(F)F)c(=O)n1 [Gemcitabine] + CC(C)C[C@H](NC(=O)[C@H](Cc1ccccc1)NC(=O)c1cnccn1)B(O)O [Bortezomib] (partner 0.002 µM)
Outline: (§1)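 Lung cancer cell lines were pin-tool dosed in 1536-well plates on the day after seeding, with either a lone drug or a fixed anchor-drug dose plus five library-drug doses (not always all listed) in √10 steps. Nuclei were counted on 4× images after 5 days. Relative viability is the ratio of treated-well to vehicle-well nuclei counts, with each value a median of duplicate plates.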

Gemcitabine + Pictilisib = compound: Nc1ccn([C@@H]2O[C@H](CO)[C@@H](O)C2(F)F)c(=O)n1 [Gemcitabine] + CS(=O)(=O)N1CCN(Cc2cc3nc(-c4cccc5[nH]ncc45)nc(N4CCOCC4)c3s2)CC1 [Pictilisib] (partner 1 µM)
Outline: as §1

Gemcitabine + Olaparib = compound: Nc1ccn([C@@H]2O[C@H](CO)[C@@H](O)C2(F)F)c(=O)n1 [Gemcitabine] + O=C(c1cc(Cc2n[nH]c(=O)c3ccccc23)ccc1F)N1CCN(C(=O)C2CC2)CC1 [Olaparib] (partner 8 µM)
Outline: as §1

Gemcitabine + Trametinib = compound: Nc1ccn([C@@H]2O[C@H](CO)[C@@H](O)C2(F)F)c(=O)n1 [Gemcitabine] + CC(=O)Nc1cccc(-n2c(=O)n(C3CC3)c(=O)c3c(Nc4ccc(I)cc4F)n(C)c(=O)c(C)c32)c1 [Trametinib] (partner 0.02 µM)
Outline: as §1

Cell Line | relative viability (Gemcitabine + Bortezomib; first compound 0.001 µM) | relative viability (Gemcitabine + Bortezomib; first compound 0.003162 µM) | relative viability (Gemcitabine + Bortezomib; first compound 0.01 µM) | relative viability (Gemcitabine + Bortezomib; first compound 0.03162 µM) | relative viability (Gemcitabine + Bortezomib; first compound 0.1 µM) | relative viability (Gemcitabine + Pictilisib; first compound 0.001 µM) | relative viability (Gemcitabine + Pictilisib; first compound 0.003162 µM) | relative viability (Gemcitabine + Pictilisib; first compound 0.01 µM) | relative viability (Gemcitabine + Pictilisib; first compound 0.03162 µM) | relative viability (Gemcitabine + Pictilisib; first compound 0.1 µM) | relative viability (Gemcitabine + Olaparib; first compound 0.001 µM) | relative viability (Gemcitabine + Olaparib; first compound 0.003162 µM) | relative viability (Gemcitabine + Olaparib; first compound 0.01 µM) | relative viability (Gemcitabine + Olaparib; first compound 0.03162 µM) | relative viability (Gemcitabine + Olaparib; first compound 0.1 µM) | relative viability (Gemcitabine + Trametinib; first compound 0.001 µM) | relative viability (Gemcitabine + Trametinib; first compound 0.003162 µM) | relative viability (Gemcitabine + Trametinib; first compound 0.01 µM) | relative viability (Gemcitabine + Trametinib; first compound 0.03162 µM) | relative viability (Gemcitabine + Trametinib; first compound 0.1 µM)
HCC-44 | 0.895 | 0.874 | 0.701 | 0.393 | 0.131 | 0.58 | 0.568 | 0.593 | 0.392 | 0.234 | 0.932 | 0.988 | 0.931 | 0.704 | 0.391 | 1.11 | 1.02 | 1.02 | 0.895 | 0.42
HCC-78 | 0.593 | 0.314 | 0.335 | 0.302 | 0.193 | 0.198 | 0.247 | 0.201 | 0.148 | 0.132 | 0.715 | 0.335 | 0.213 | 0.21 | 0.181 | 0.749 | 0.42 | 0.373 | 0.274 | 0.231
HCC-366 | 1.05 | 1.01 | 0.425 | 0.0213 | 0.0123 | 0.188 | 0.136 | 0.0591 | 0.0347 | 0.0366 | 0.332 | 0.389 | 0.124 | 0.0348 | 0.0152 | 0.284 | 0.392 | 0.0497 | 0.0318 | 0.0203
HCC-827 | 0.964 | 1.08 | 0.875 | 0.607 | 0.427 | 1.11 | 0.845 | 0.89 | 0.591 | 0.389 | 0.673 | 0.434 | 0.384 | 0.0193 | 0.162 | 0.537 | 0.247 | 0.316 | 0.184 | 0.156
HOP-62 | 0.506 | 0.39 | 0.209 | 0.0446 | 0.0459 | 0.78 | 0.464 | 0.315 | 0.0682 | 0.0859 | 0.516 | 0.387 | 0.0703 | 0.0534 | 0.0449 | 0.366 | 0.405 | 0.24 | 0.122 | 0.0817
IA-LM | 0.882 | 0.805 | 0.651 | 0.0803 | 0.0498 | 0.336 | 0.332 | 0.219 | 0.1 | 0.0556 | 0.854 | 0.788 | 0.797 | 0.0888 | 0.0689 | – | – | – | – | –
LC-2-ad | 0.998 | 0.992 | 0.476 | 0.11 | 0.0847 | 0.517 | 0.726 | 0.242 | 0.129 | 0.105 | 0.805 | 0.791 | 0.65 | 0.482 | 0.224 | 0.926 | 1.01 | 0.845 | 0.645 | 0.236
LK-2 | – | – | – | – | – | 0.527 | – | 0.419 | 0.271 | 0.288 | 0.878 | 0.722 | 0.386 | 0.153 | 0.148 | 0.926 | 0.65 | 0.731 | 0.206 | 0.167
NCI-H358 | – | – | – | – | – | 0.338 | 0.27 | 0.188 | 0.194 | 0.161 | 0.689 | 0.321 | 0.146 | 0.101 | 0.0993 | 0.11 | 0.107 | 0.0776 | 0.0818 | 0.0722
NCI-H522 | – | – | – | – | – | – | – | – | – | – | 0.639 | 0.641 | 0.323 | 0.306 | 0.3 | 0.705 | 0.628 | 0.36 | 0.347 | 0.319
NCI-H1299 | 1.03 | 1.07 | 1 | 0.995 | 1.07 | 0.637 | 0.728 | 0.709 | 0.883 | 0.655 | 0.984 | 1.03 | 0.962 | 1 | 0.937 | – | – | – | – | –
NCI-H1395 | – | – | – | – | – | 0.544 | 0.666 | 0.413 | 0.351 | 0.347 | 0.438 | 0.452 | 0.423 | 0.351 | 0.34 | 1.01 | 0.841 | 0.554 | 0.424 | 0.359
NCI-H1563 | 0.93 | 0.965 | 0.851 | 0.608 | 0.537 | 0.599 | 0.669 | 0.652 | 0.634 | 0.506 | – | – | – | – | – | – | – | – | – | –
NCI-H1648 | – | – | – | – | – | – | – | – | – | – | 1.01 | 0.659 | 0.497 | 0.335 | 0.227 | 0.423 | 0.339 | 0.473 | 0.326 | 0.234
NCI-H1703 | 0.306 | 0.209 | 0.144 | 0.11 | 0.111 | 0.208 | 0.227 | 0.158 | 0.154 | 0.132 | 0.359 | 0.266 | 0.0911 | 0.119 | 0.105 | – | – | – | – | –
NCI-H1793 | – | – | – | – | – | 0.262 | 0.282 | 0.291 | 0.186 | 0.176 | 0.807 | 0.93 | 0.159 | 0.137 | 0.105 | 0.385 | 0.45 | 0.256 | 0.187 | 0.15
NCI-H1944 | – | – | – | – | – | 0.352 | 0.373 | 0.355 | 0.241 | 0.22 | 0.459 | 0.469 | 0.358 | 0.21 | 0.134 | 0.418 | 0.416 | 0.364 | 0.28 | 0.154
NCI-H2170 | – | – | – | – | – | 0.318 | 0.359 | 0.215 | 0.157 | 0.156 | 0.591 | 0.636 | 0.258 | 0.091 | 0.104 | 1.02 | 0.907 | 0.785 | 0.167 | 0.109
NCI-H2342 | – | – | – | – | – | – | – | – | – | – | 0.457 | 0.401 | 0.277 | 0.244 | 0.259 | 0.862 | 0.904 | 0.561 | 0.545 | 0.311
SK-MES-1 | – | – | – | – | – | 0.333 | 0.254 | 0.164 | 0.136 | 0.149 | 0.587 | 0.22 | 0.165 | 0.199 | 0.161 | 0.605 | 0.551 | 0.25 | 0.237 | 0.178
SW 900 | – | – | – | – | – | – | – | – | – | – | 0.837 | 0.543 | 0.165 | 0.168 | 0.134 | 0.722 | 0.609 | 0.119 | 0.142 | 0.13
